# Data taken from PubChem BioAssay (NCI).
# Where “and” joins values, the source holds several entries; their conditions need not be identical. Equal values may be shown once.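 Values below derive from 48-hour exposures of cells grown in 96-well plates, with endpoints linearly interpolated between the two concentrations bracketing the appropriate inhibition level. Abbreviation: GI50, concentration required for 50% inhibition of growth. Definition used: TGI = concentration required for complete inhibition of growth.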
# System: A549 NSCLC
# Assay: NCI anticancer screen, dose series, 48 h
SMILES,GI50,TGI
CC[C@@H](c1ccc(O)c(O)c1)[C@@H](CC)c1ccc(O)c(O)c1,31.9 µM,> 100 µM
COc1cc(-c2nc3sccn3c2-c2ccnc(NCCNS(=O)(=O)c3ccc(F)cc3)n2)ccc1F,2.44 µM,> 100 µM
COc1cc(-c2nn(-c3cccc(NC(=O)c4ccccc4)c3)cc2-c2ccncc2)ccc1Cl,0.496 µM,> 60.6 µM
O=C1CSC(=S)N1/N=C/c1ccc(Cl)c([N+](=O)[O-])c1,,> 100 µM
C#Cc1cccc(Nc2nc3cc([N+](=O)[O-])ccc3nc2Nc2ccc(O)cc2)c1,2.17 µM,4.78 µM
CN(C)CC(O)c1ccc(/C=C/c2ccc(Cl)cc2)cc1 (centres undefined),1.86 µM,3.38 µM
CCCCCCCCCCSC(=N)N (tested in a mixture with another compound),4.36 µM,18 µM
CCOc1ccc(NC2=CC(=O)C(=O)c3ccccc32)cc1,,7.65 µM
COc1cc2c(cc1OC)-c1cc(OC)c(OC)cc1C(CN(C)C)C2 (centres undefined),> 10 µM,> 10 µM
O=C1c2ccccc2C(=O)c2c(/C=C\N3CCCCC3)ccnc21,,5.84 µM
C=C1C[C@H](O)[C@H](Br)C(C)(C)[C@@]12CCC(C)=C(Cl)C2,0.261 µM,1.96 µM
O=C(NC1CCCCC1)NS(=O)(=O)c1ccc(N2N=C3c4ccccc4CC3C2c2ccc(Cl)cc2)cc1 (centres undefined),17.9 µM,47 µM
c1ccc(-c2n(Cc3ccc4ccccc4n3)cc[n+]2Cc2ccc3ccccc3c2)cc1,2.91 µM,12.1 µM
O=C(Nc1cccc(C(F)(F)F)c1)Nc1cccc(C(F)(F)F)c1,0.531 µM,8.21 µM
CC(C)(C)[Si](C)(C)OC1[C@@H](O[Si](C)(C)C(C)(C)C)[C@@H](CNC(=O)NC(=O)C(F)(F)F)O[C@H]1n1cnc2c(NC(=O)Nc3ccccc3)ncnc21 (some centres undefined),4.5 µM,12.4 µM
CCOC(=O)n1cc(C2=C(c3ccc(OC)c(OC)c3)COC2=O)c2ccccc21,0.11 µM,> 100 µM
CC(=C(c1ccc(OCCN2CCCCC2)cc1)c1ccc(OCCN2CCCCC2)cc1)c1ccc(Cl)cc1,0.457 µM,0.914 µM
C=CC(=O)Nc1cc(Nc2nccc(-c3cn(C)c4ccccc34)n2)c(OC)cc1N(C)CCN(C)C,1.4 µM and 1.29 µM,4.17 µM and 3.87 µM
CC(=O)OC1(C)N=NC2(CCCCC2)O1 (centres undefined),,> 100 µM
COc1ccc2ncnc(Nc3ccc(OCc4ccccc4)cc3)c2c1,5.98 µM,> 25 µM
O=C1c2c(F)c(F)c(F)c(F)c2C(=O)N1c1ccc(F)cc1F,16.3 µM,34.7 µM
CC(C)[C@@H]1NC(=O)[C@]2(C)CSC(=N2)c2ccnc(c2)CNC(=O)C[C@@H](/C=C/CCS)OC1=O,0.0635 µM,1.33 µM
OC(c1cc(C(F)(F)F)nc2c(C(F)(F)F)cccc12)C1CCCCN1 (centres undefined),2.24 µM,6.33 µM
C/C=C/[C@@H]1O[C@@H]2COC(=O)C2=C[C@@H]1O,20.6 µM,40.4 µM
COC(=O)/C=C/c1cc(OC(C)=O)c2c(c1)[C@@H](C(=O)OC)[C@H](c1ccc(OC(C)=O)c(OC(C)=O)c1)O2,0.248 µM,> 78.8 µM

# System: HCT-116 colon
# Assay: NCI anticancer screen, dose series, 48 h
SMILES,GI50,TGI
CC[C@@H](c1ccc(O)c(O)c1)[C@@H](CC)c1ccc(O)c(O)c1,4.23 µM,14.4 µM
COc1cc(-c2nc3sccn3c2-c2ccnc(NCCNS(=O)(=O)c3ccc(F)cc3)n2)ccc1F,0.362 µM,> 100 µM
COc1cc(-c2nn(-c3cccc(NC(=O)c4ccccc4)c3)cc2-c2ccncc2)ccc1Cl,0.421 µM,> 100 µM
Cc1cc(Nc2ccc(C)c(Cl)c2)n2nc(C(F)(F)F)nc2n1,17.2 µM,46.2 µM
O=C1CSC(=S)N1/N=C/c1ccc(Cl)c([N+](=O)[O-])c1,,48.2 µM
C#Cc1cccc(Nc2nc3cc([N+](=O)[O-])ccc3nc2Nc2ccc(O)cc2)c1,1.46 µM,2.9 µM
CN(C)CC(O)c1ccc(/C=C/c2ccc(Cl)cc2)cc1 (centres undefined),1.46 µM,2.78 µM
CCCCCCCCCCSC(=N)N (tested in a mixture with another compound),2.6 µM,9.55 µM
CCOc1ccc(NC2=CC(=O)C(=O)c3ccccc32)cc1,,10.1 µM
COc1cc2c(cc1OC)-c1cc(OC)c(OC)cc1C(CN(C)C)C2 (centres undefined),> 10 µM,> 10 µM
O=C1c2ccccc2C(=O)c2c(/C=C\N3CCCCC3)ccnc21,,5.89 µM
C=C1C[C@H](O)[C@H](Br)C(C)(C)[C@@]12CCC(C)=C(Cl)C2,0.32 µM,
O=C(NC1CCCCC1)NS(=O)(=O)c1ccc(N2N=C3c4ccccc4CC3C2c2ccc(Cl)cc2)cc1 (centres undefined),5.15 µM,18.6 µM
c1ccc(-c2n(Cc3ccc4ccccc4n3)cc[n+]2Cc2ccc3ccccc3c2)cc1,1.24 µM,3.37 µM
O=C(Nc1cccc(C(F)(F)F)c1)Nc1cccc(C(F)(F)F)c1,0.462 µM,2.76 µM
CC(C)(C)[Si](C)(C)OC1[C@@H](O[Si](C)(C)C(C)(C)C)[C@@H](CNC(=O)NC(=O)C(F)(F)F)O[C@H]1n1cnc2c(NC(=O)Nc3ccccc3)ncnc21 (some centres undefined),2.46 µM,8.47 µM
CCOC(=O)n1cc(C2=C(c3ccc(OC)c(OC)c3)COC2=O)c2ccccc21,0.0482 µM,> 100 µM
CC(=C(c1ccc(OCCN2CCCCC2)cc1)c1ccc(OCCN2CCCCC2)cc1)c1ccc(Cl)cc1,0.39 µM,0.743 µM
C=CC(=O)Nc1cc(Nc2nccc(-c3cn(C)c4ccccc34)n2)c(OC)cc1N(C)CCN(C)C,1.72 µM and 1.51 µM,3.3 µM and 2.96 µM
CC(=O)OC1(C)N=NC2(CCCCC2)O1 (centres undefined),,> 100 µM
COc1ccc2ncnc(Nc3ccc(OCc4ccccc4)cc3)c2c1,8.35 µM,> 25 µM
O=C1c2c(F)c(F)c(F)c(F)c2C(=O)N1c1ccc(F)cc1F,3.71 µM,14.2 µM
CC(C)[C@@H]1NC(=O)[C@]2(C)CSC(=N2)c2ccnc(c2)CNC(=O)C[C@@H](/C=C/CCS)OC1=O,0.115 µM,1.09 µM
OC(c1cc(C(F)(F)F)nc2c(C(F)(F)F)cccc12)C1CCCCN1 (centres undefined),1.79 µM,3.22 µM
C/C=C/[C@@H]1O[C@@H]2COC(=O)C2=C[C@@H]1O,2.06 µM,8.79 µM
COC(=O)/C=C/c1cc(OC(C)=O)c2c(c1)[C@@H](C(=O)OC)[C@H](c1ccc(OC(C)=O)c(OC(C)=O)c1)O2,0.0485 µM,> 59.9 µM

# System: HL-60(TB) leukemia
# Assay: NCI anticancer screen, dose series, 48 h
SMILES,GI50,TGI
CC[C@@H](c1ccc(O)c(O)c1)[C@@H](CC)c1ccc(O)c(O)c1,2.66 µM,6.21 µM
COc1cc(-c2nc3sccn3c2-c2ccnc(NCCNS(=O)(=O)c3ccc(F)cc3)n2)ccc1F,3.4 µM,> 100 µM
COc1cc(-c2nn(-c3cccc(NC(=O)c4ccccc4)c3)cc2-c2ccncc2)ccc1Cl,0.376 µM,
Cc1cc(Nc2ccc(C)c(Cl)c2)n2nc(C(F)(F)F)nc2n1,22.1 µM,66.2 µM
O=C1CSC(=S)N1/N=C/c1ccc(Cl)c([N+](=O)[O-])c1,,61 µM
C#Cc1cccc(Nc2nc3cc([N+](=O)[O-])ccc3nc2Nc2ccc(O)cc2)c1,2.42 µM,5.63 µM
CN(C)CC(O)c1ccc(/C=C/c2ccc(Cl)cc2)cc1 (centres undefined),1.11 µM,2.7 µM
CCCCCCCCCCSC(=N)N (tested in a mixture with another compound),1.85 µM,4.19 µM
CCOc1ccc(NC2=CC(=O)C(=O)c3ccccc32)cc1,,4.13 µM
COc1cc2c(cc1OC)-c1cc(OC)c(OC)cc1C(CN(C)C)C2 (centres undefined),> 10 µM,> 10 µM
O=C1c2ccccc2C(=O)c2c(/C=C\N3CCCCC3)ccnc21,,27.8 µM
C=C1C[C@H](O)[C@H](Br)C(C)(C)[C@@]12CCC(C)=C(Cl)C2,0.206 µM,0.761 µM
O=C(NC1CCCCC1)NS(=O)(=O)c1ccc(N2N=C3c4ccccc4CC3C2c2ccc(Cl)cc2)cc1 (centres undefined),15.8 µM,36.6 µM
c1ccc(-c2n(Cc3ccc4ccccc4n3)cc[n+]2Cc2ccc3ccccc3c2)cc1,0.256 µM,0.88 µM
O=C(Nc1cccc(C(F)(F)F)c1)Nc1cccc(C(F)(F)F)c1,1.84 µM,5.86 µM
